Measurements from patent US20250009856A1, “METHODS FOR TREATING RESPIRATORY DISEASES” (MUCPharm Pty Ltd, priority 2021, published 2025).
Several values for one entry are separate records, joined by “and”; a condition that tells them apart may be missing. Identical values can stand only once.

Legend:
[1] = Dynamic viscosity after mixing with BromAc, DNase and combinations; details: agent without DNASE: BR(25 ug/ml), NAC(20 mg/ml), or BR(250 ug/ml) + NAC(20 ug/ml); 1 hour, 37 deg C; Cont(PBS) 2.36
Protocol: (§1) Artificial sputa was prepared following methodology with ingredients as in earlier experiments. To 1.5 ml of artificial sputa in a vial was added 0.5 ml of reagent containing the required bromelain, NAC, DNase and their combinations. Control vials included 0.5 ml of PBS only. The mixture was vortex mixed and incubated in a shaker water bath at 37 deg C. At the end of 1 hour, the samples were retrieved, vortex mixed and equilibrated to ambient room temperature before measuring dynamic viscosity and pipette flow.
(§2) Dynamic viscosity was determined using the capillary tube method as in earlier experiments, whilst the pipette flow was evaluated using a 0.5 ml pipette inclined at 60 deg angle. The pipette flow was calculated as shown below.

[2] = tested on: SPF rabbits; test: Tolerability study of inhaled BromAc in rabbit model; details: Ac 20 mg inhaled; 48 h
[3] = Pipette flow speed after aerosol treatment; set-up: species or system human; details: SS; for Pipette flow speed (€), After: before 0.0137 ± 0.005
Protocol: Six grams of soft PMP mucin was homogenised using a shredder with phosphate buffer saline (PBS) (3.0 ml) with sonification and vortexed until a homogenous mixture was formed, with incubation at 37° C. to remove air bubbles and after which viscosity was adjusted (further dilutions with PBS). The pH was adjusted to 7.0 using either 1.0 M NaOH or 0.1 N Hydrochloric acid. Using a 0.5 ml glass pipette fixed at an angle of 60°, 0.5 ml of sample at 25° C. (ambient room temperature) was sucked up the pipette and the time taken to empty 0.3 ml of the sample was timed in sec. Pipette flow time (€) was calculated as follows: € (ml/sec)=0.3 ml/Time to empty 0.3 ml (sec) A similar investigation as above was carried out to determine a comparative dynamic viscosity and pipette flow time for PMP mucin simulated sputa (SS). A similar treatment as in the experiment described above for NAC was carried out using Bromelain (125 and 250 μg/ml) in PBS (pH.7.0) along with control using PBS (pH.7.0). Both dynamic viscosity and pipette flow time was measured as outlined earlier for both artificial and PMP simulated sputa models. Using a combination of NAC (20 mg/ml) with either 125 or 250 μg/ml Bromelain in PBS (pH.7.0), a similar investigation was carried out as outlined earlier and measurements were made for both artificial and simulated sputa models. D=(TREATED)−(UNTREATED/(UNTREATED)×100.

[4] = Dynamic viscosity (capillary tube) after aerosol treatment; details: AS; for Dynamic viscosity (γ), After: before 1.382 ± 0.013
Protocol: Artificial sputum was prepared following protocol as detailed by […] et al (Kirchner, S., et al., Use of artificial sputum medium to test antibiotic efficacy against Pseudomonas aeruginosa in conditions more relevant to the cystic fibrosis lung. Journal of visualized experiments: JOVE, 2012 (64)). Briefly 250 mg of porcine mucin, 200 mg of sperm DNA, 295 mg of diethylene triamine pentaacetic acid (DPTA), 25 mg sodium chloride, 110 mg potassium chloride, 140 mg Tris base were mixed in a volume of 45 ml of distilled water and pH adjusted to 7.0 using Trisbase. The volume of the solution was then adjusted to 50 ml. Further dilutions were then carried out to adjust viscosity as desired. Dynamic viscosity (Y) of sputum was measured using the capillary tube method as outlined in […]. and G. Castellano, Determination of the kinematic viscosity by the liquid rise in a capillary tube. […] Ensino de Física, 2013. 35. Artificial sputa (AS) were prepared as detailed above, and 1.5 ml of artificial sputum was carefully emptied into an endotracheal tube (in triplicates). A volume of 6.0 ml of NAC 10 mg/ml in PBS (pH.7.0) in triplicate was aerosolised using a nebulizer and passed over the sputum samples in the endotracheal tubes kept at 37° C. in a water bath. Similarly, the experiments were repeated using NAC 20 mg/ml in PBS (pH.7.0). The controls only received PBS (pH 7.0). The aerosol delivery time to empty 6.0 ml for each treatment was 25 min. The dynamic viscosity of the sputa was measured before and after using the capillary tube method, whilst the pipette flow time was also measured as described earlier using a 0.5 ml glass pipette. Samples were equilibrated to 25° C. before measurement A similar treatment as in the experiment described above for NAC was carried out using Bromelain (125 and 250 μg/ml) in PBS (pH.7.0) along with control using PBS (pH.7.0). Both dynamic viscosity and pipette flow time was measured as outlined earlier for both artificial and PMP simulated sputa models. Using a combination of NAC (20 mg/ml) with either 125 or 250 μg/ml Bromelain in PBS (pH.7.0), a similar investigation was carried out as outlined earlier and measurements were made for both artificial and simulated sputa models. D=(TREATED)-(UNTREATED/(UNTREATED)×100.

[5] = Sputum flow speed after mixing with BromAc, DNase and combinations; details: agent without DNASE: BR(250 ug/ml), NAC(20 mg/ml) or both; 1 hour, 37 deg C; Cont(PBS) 0.0436
Protocol: as §1, §2
Pipette flow (€)=0.45 ml sputa/time to empty (sec).

[6] = Particle size distribution of aerosols by laser diffraction, Pari LC Sprint nebulizer; format: physicochemical; details: mean
Protocol: The particle size distributions (PSD) of 5 formulations containing bromelain and acetylcysteine at different concentrations were determined. The formulations were aerosolized using a PARI TurboBOY SX compressor, combined with the Pari LC Sprint nebulizer (PARI GmbH, USA). The nebulizer was connected to a USP induction port (throat), and particle size was measured at flow rate of 15 L/min in Spraytec particle sizer (Malvern Instruments, Malvern, UK). Measurements were performed in triplicate. Results are expressed as D10, D50 and D90, indicating the particle diameter at 10, 50 and 90% in the cumulative distribution.
The formulations were prepared in saline (0.9% w/v) and kept at −20° C. prior to analysis. The formulations tested were: • 1. Control: Saline (sodium chloride 0.9% w/v) • 2. Low Concentration of Ac (8 mg/mL) • 3. High Concentration of Ac (60 mg/mL) • 4. Brom at 50 μg/mL • 5. Combination 1: Low Ac (8 mg/mL)+Brom (50 μg/mL) • 6. Combination 2: High Ac (60 mg/mL)+Brom (50 μg/mL)

CC(=O)N[C@@H](CS)C(=O)O [NAC, N-acetylcysteine]
Dynamic viscosity (¥) [1]: 1.640 cSt
Incident: Broncho-interstitial pneumonia, multifocal, mild [2]: 1 out of 4
Incident: Broncho-interstitial pneumonia, multifocal, mild, granulomatous [2]: 3 out of 4
D (%), increase of pipette flow speed (€) ([3]; aerosol NAC 10 mg/ml): 34% and 34 ↑ %
Pipette flow speed (€), After ([3]; aerosol NAC 10 mg/ml): 0.0183 ± 0.001 mL/s
D (%), increase of pipette flow speed (€) ([3]; aerosol NAC 20 mg/ml): 46% and 46 ↑ %
Pipette flow speed (€), After ([3]; aerosol NAC 20 mg/ml): 0.02 ± 0.002 mL/s
D (%), decrease of dynamic viscosity (γ) ([4]; aerosol NAC 10 mg/ml): 6.0% and 6.0 ↓ %
Dynamic viscosity (γ), After ([4]; aerosol NAC 10 mg/ml, 6.0 ml over 25 min, 37° C.): 1.300 ± 0.002 cSt
D (%), decrease of dynamic viscosity (γ) ([4]; aerosol NAC 20 mg/ml): 9.8% and 10% and 9.8 ↓ %
Dynamic viscosity (γ), After ([4]; aerosol NAC 20 mg/ml): 1.247 ± 0.041 cSt
Sputum flow speed (€) [5]: 0.05 mL/s
D10 ([6]; NAC 8 mg/mL in saline): 1.19 µm
D50 ([6]; NAC 8 mg/mL in saline): 3.26 μm
D90 ([6]; NAC 8 mg/mL in saline): 8.23c
D10 ([6]; NAC 60 mg/mL in saline): 1.12 µm
D50 ([6]; NAC 60 mg/mL in saline): 2.87b μm
D90 ([6]; NAC 60 mg/mL in saline): 7.47 µm
